This is an account of results in PubChem BioAssay (NCI).

Test systems include HT29 colon; IGROV1 ovarian; HCT-116 colon; SK-MEL-28 melanoma; HCC-2998 colon; ACHN renal; SF-539 CNS; NCI-H23 lung; KM12 colon; EKVX NSCLC.
Common to all, as to assay: growth of human tumour cells (NCI), 48 h

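Step 1: Grow cells in 96-well plates. Step 2: Expose to compound for 48 hours at 5 concentrations. Step 3: Interpolate endpoints linearly; if unreached, use highest concentration. At the GI50, growth is halved. Definition used: TGI = concentration required for complete inhibition of growth.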

As to `CC(=O)OC1CCC2(C)C(=CCC3C4CC(CN5CC5)C(=O)C4(C)CCC32)C1` (stereo unspecified), the GI50 in the assay with HT29 colon is 3.39 µM; in the assay with IGROV1 ovarian it was 4.23 µM; in the assay on HCT-116 colon it was 3.44 µM; in the assay with SK-MEL-28 melanoma, 13.5 µM; in the assay on HCC-2998 colon it was 14 µM; in the assay on ACHN renal, 4.17 µM. The figures for the GI50 in the assay on SF-539 CNS, in the assay on NCI-H23 lung and with KM12 colon were 13.5 µM, 14 µM and 3.11 µM, respectively. Further, the TGI is 12.6 µM with HT29 colon; 15.2 µM with IGROV1 ovarian; 10.1 µM in the assay on HCT-116 colon; 27.3 µM with SK-MEL-28 melanoma; 30.4 µM with HCC-2998 colon; 15.7 µM with ACHN renal. The TGI in the assay with SF-539 CNS was 26.9 µM; with NCI-H23 lung it was 30 µM; in the assay with KM12 colon, 11 µM.
On to `Brc1ccc2c(c1)-c1ccccc1C1=NCCN12`, for which the GI50 in the assay on HT29 colon was 0.478 µM; with IGROV1 ovarian, 1.61 µM; with HCT-116 colon, 0.403 µM; in the assay with SK-MEL-28 melanoma, 1.8 µM; with HCC-2998 colon it was 1.3 µM; in the assay on ACHN renal, 0.519 µM. The GI50 with SF-539 CNS is 1.63 µM; with NCI-H23 lung, 1.8 µM; with KM12 colon it was 1.02 µM. The TGI in the assay on HT29 colon is 3.33 µM; in the assay on IGROV1 ovarian, 11.2 µM; with HCT-116 colon it was 10.2 µM; in the assay on SK-MEL-28 melanoma, 3.63 µM; in the assay on HCC-2998 colon, 8.49 µM; with ACHN renal it was 12.4 µM. Further, the TGI came out at 4.38 µM in the assay with SF-539 CNS, 11.3 µM in the assay on NCI-H23 lung and 11.3 µM with KM12 colon.
For the molecule `O=C(/C=C/N1CCN(c2cccc(Cl)c2)CC1)c1ccc(Cl)cc1`, the GI50 was 32.8 µM in the assay with HT29 colon; 27.1 µM with HCT-116 colon; 39.9 µM with SK-MEL-28 melanoma; 24.9 µM in the assay on HCC-2998 colon; 44.9 µM in the assay with ACHN renal; 22.8 µM in the assay with SF-539 CNS. For the same molecule, the GI50 is 25.9 µM with EKVX NSCLC, 39 µM in the assay with NCI-H23 lung and 27.1 µM in the assay on KM12 colon. Further, the TGI in the assay on HT29 colon is over 100 µM; with HCT-116 colon it was 70.4 µM; in the assay with SK-MEL-28 melanoma, 91.2 µM; in the assay with HCC-2998 colon it was 50.5 µM; in the assay with ACHN renal, over 100 µM; in the assay on SF-539 CNS it was 47.7 µM. The results for the TGI with EKVX NSCLC, in the assay on NCI-H23 lung and in the assay with KM12 colon were 85.3 µM, over 100 µM and 69.8 µM, respectively.
Take `CC(=O)OCC1OC(OC(C)=O)C(NC#N)C(OC(C)=O)C1OC(C)=O` (stereo unspecified): the TGI with HT29 colon, with IGROV1 ovarian, with HCT-116 colon, with SK-MEL-28 melanoma, with HCC-2998 colon and with ACHN renal was over 100 µM in each case. In addition, the TGI in the assay on SF-539 CNS, in the assay with NCI-H23 lung and in the assay with KM12 colon was over 100 µM each time.
For the molecule `COC(=O)N/N=C(\c1nc2ccc(Cl)cc2[nH]c1=O)C(O)c1ccc([N+](=O)[O-])cc1` (stereo unspecified), the TGI in the assay on HT29 colon, in the assay on IGROV1 ovarian, in the assay with HCT-116 colon, in the assay with SK-MEL-28 melanoma, in the assay on HCC-2998 colon and in the assay on SF-539 CNS was over 100 µM each time. The TGI with NCI-H23 lung and in the assay with KM12 colon was over 100 µM each time.
Turning to `CCCNc1ncnc2c1cnn2C`, the TGI in the assay on HT29 colon, in the assay on IGROV1 ovarian, with HCT-116 colon, in the assay with SK-MEL-28 melanoma, in the assay with HCC-2998 colon and with ACHN renal was over 100 µM each time. Besides, the TGI in the assay with SF-539 CNS, in the assay on NCI-H23 lung and in the assay on KM12 colon was over 100 µM throughout.
In the case of `CN(C)C(=O)c1cc2cnc(Nc3ccc(N4CCNCC4)cn3)nc2n1C1CCCC1`, the GI50 in the assay with HT29 colon was 3.28 µM; with IGROV1 ovarian it was 19.5 µM; in the assay with HCT-116 colon, 4.25 µM; in the assay on SK-MEL-28 melanoma, 16.1 µM; in the assay with HCC-2998 colon, 27.8 µM; with ACHN renal, 7.89 µM. Further, the values for the GI50 in the assay on SF-539 CNS, in the assay with NCI-H23 lung and with KM12 colon were 15.7 µM, 13.9 µM and 2.85 µM, respectively. In addition, the TGI in the assay on HT29 colon was over 100 µM; with IGROV1 ovarian, over 100 µM; with HCT-116 colon it was 48.7 µM; in the assay with SK-MEL-28 melanoma, 48.3 µM; with HCC-2998 colon, over 100 µM; with ACHN renal it was over 100 µM. Moreover, the TGI came out at 30.8 µM in the assay with SF-539 CNS, 63.2 µM in the assay with NCI-H23 lung and 32.9 µM in the assay on KM12 colon.
In the case of `COc1ccc(S(=O)(=O)NCCCNc2nccc(-c3c(-c4ccc(F)cc4)nc4sccn34)n2)cc1`, the GI50 is 2.84 µM in the assay with HT29 colon; 5.59 µM with IGROV1 ovarian; 4.85 µM in the assay on HCT-116 colon; 9.5 µM in the assay with SK-MEL-28 melanoma; 11.8 µM in the assay with HCC-2998 colon; 2.73 µM with ACHN renal. The GI50 with SF-539 CNS is 17.1 µM; in the assay with NCI-H23 lung, 15.3 µM; in the assay with KM12 colon it was 5.07 µM. The TGI in the assay with HT29 colon was 20.2 µM; in the assay with IGROV1 ovarian, over 100 µM; in the assay with HCT-116 colon, over 100 µM; with SK-MEL-28 melanoma, over 100 µM; in the assay with HCC-2998 colon, 56.7 µM; in the assay on ACHN renal, over 100 µM. The TGI in the assay with SF-539 CNS, in the assay on NCI-H23 lung and with KM12 colon was over 100 µM throughout.
Regarding `CCOC(=O)NC/C=C/CO`, the TGI in the assay on IGROV1 ovarian, with HCT-116 colon, in the assay on SK-MEL-28 melanoma, with HCC-2998 colon, in the assay on ACHN renal and in the assay on SF-539 CNS was over 100 µM in each case. In addition, in the assay on KM12 colon, the TGI was over 100 µM.
Take `CCOC(=O)/C(=C/c1ccc[nH]1)P(=O)(OCC)OCC`: the TGI with HT29 colon, with HCT-116 colon, in the assay with SK-MEL-28 melanoma, in the assay on HCC-2998 colon, in the assay on ACHN renal and in the assay on SF-539 CNS was over 100 µM throughout. Also, the TGI in the assay on EKVX NSCLC, in the assay on NCI-H23 lung and in the assay on KM12 colon was over 100 µM in each case.
Regarding `Nc1ccc2ncc(Nc3ccc(Cl)c(Cl)c3)nc2c1`, the TGI in the assay with HT29 colon amounted to 34.9 µM; in the assay with HCT-116 colon it was 57.3 µM; in the assay on SK-MEL-28 melanoma, 84.1 µM; with HCC-2998 colon it was 32.8 µM; in the assay with ACHN renal, 86.3 µM; with SF-539 CNS it was 40.4 µM. Moreover, the TGI with EKVX NSCLC was 88.9 µM; in the assay with NCI-H23 lung, 47.9 µM; in the assay on KM12 colon, over 100 µM.
